Source: article PMC6331797, “Escherichia coli ASKA Clone Library Harboring tRNA-Specific Adenosine Deaminase (tadA) Reveals Resistance towards Xanthorrhizol” (Molecules, 2015)

Tests used:
Assay in all cases: tryptophan fluorescence quenching titration with purified protein
Assay type in all cases: binding
[1] = target: T1, tadA (tRNA-specific adenosine deaminase) (Escherichia coli, UniProt P68398, A143V)
T1 construct: his-tagged tadA

[2] = target: T2, tadA (tRNA-specific adenosine deaminase) (Escherichia coli, UniProt P68398, F149G)
T2 construct: his-tagged tadA
T2 sequence (P68398 whole entry F149G): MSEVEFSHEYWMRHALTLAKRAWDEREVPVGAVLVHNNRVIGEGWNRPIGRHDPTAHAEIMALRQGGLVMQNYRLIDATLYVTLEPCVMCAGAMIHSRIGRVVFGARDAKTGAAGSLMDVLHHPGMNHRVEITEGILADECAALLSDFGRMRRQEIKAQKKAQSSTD

[3] = target: T3, tadA (tRNA-specific adenosine deaminase) (Escherichia coli, UniProt P68398)
T3 construct: his-tagged tadA
T3 sequence (P68398 whole entry): as the sequence (P68398 whole entry F149G) above, with G149F counted along it

T1 sequence (P68398 whole entry A143V): as the sequence (P68398 whole entry F149G) above, with A143V, G149F counted along it

## CC(C)=CCC[C@@H](C)c1ccc(C)c(O)c1 [xanthorrhizol]
[1]
  Kd: 110 µM
[2]
  Kd: 32.8 µM
[3]
  Kd: 19 µM
